According to patent US8343912B2, “Antibiotic compositions for the treatment of gram negative infections” (priority 2008, dated 2013):
Marks after values point to notes of the source that are not given here. Numbered stars: 1 amine (or outer) side, 2 acyl side, 3 side chain; on linkers, the order of the positions; unused ones are H or OH. Bridge positions count the residues as written; N and C are the ends. Square brackets hold non-standard residues; d marks the D form. Peptide text beside a SMILES is read from it. * marks the point of attachment. Octanoyl(6-Me) = CCC(C)CCCCC(=O)*; NH(2-ClPh) = Clc1ccccc1N*; Dab = NCC[CH](N)C(=O)O; CO = O=C([*:1])[*:2]

Columns and labels:
P. aeruginosa #44 = test: MIC, broth microdilution; type: cell-based, Pseudomonas aeruginosa; details: for MIC against P. aeruginosa #44: Table 5, range of repeated tests
Method: (§1) MIC testing was performed according to Clinical and Laboratory Standards Institute (CLSI) M7-A7 (2006) broth microdilution methods. Unless otherwise indicated, MIC values are provided in units of micrograms per milliliter.
(§2) One day prior to testing, individual colonies were isolated by streaking onto rich, non-selective Tryptic Soy agar with 5% lysed sheeps blood (TSAB) with incubation at 35-37° C. for 18-24 hours.
(§3) Cultures were prepared by touching 3-5 colonies into 3 mL of Cation adjusted Mueller Hinton Broth (caMHB) in a 14 mL tube (CaMHB was prepared and sterilized according to manufacturer's specifications). Cultures were grown at 37° C. 200 rpm for approximately four hours prior to density adjustment for addition to the MIC assay.
(§4) OD600 of growing cultures was measured and adjusted to approximately 10^5 colony forming units per mL (CFU/mL) in caMHB for MIC inoculation (approximately OD600 0.001).
(§5) Diluted cultures were used to inoculate 50 μL per well in broth microdilution assays (final volume 100 μl per well; compounds were prepared in two-fold dilutions).
(§6) Plates were incubated 16-20 hrs at 37° C., with shaking at 200 rpm.
(§7) OD600 was determined for all wells. Growth was defined as OD600>0.1. MICs were defined as the lowest concentration producing no visible turbidity (OD600<0.1).
P. aeruginosa #44 or K. pneumoniae #21 were grown in cation adjusted Mueller Hinton Broth (caMHB) (catalog #B12322; Fisher Scientific, Pittsburgh, Pa.) at 37° C. MIC testing was performed according to Clinical and Laboratory Standards Institute [CLSI, formerly National Committee for Clinical Laboratory Standards (NCCLS), Wayne, Pa.] guidelines for broth microdilution.
MIC testing was performed according to CLSI (formerly NCCLS) guidelines for broth microdilution.

P. aeruginosa = test: MIC, broth microdilution (Table 4); type: cell-based, Pseudomonas aeruginosa; details: for MIC P. aeruginosa: Table 4
Method: as §1, §2, §3, §4, §5, §6, §7

A. baumannii #1570 = test: Thigh infection in neutropenic mice; type: in vivo; details: for Log10 CFU/mL thigh homogenate ± SD: thighs at 24 h; for ED−3log10 (dose for 3 log10 reduction in bacterial count vs water): thigh infection, sc, Compound 5 value corrected for lot potency 711 μg/mg
Method: Infections were induced in neutropenic mice by […] the left thigh of each mouse. Compound 5, or a comparator drug, either polymyxin B, colistin or imipenem, were administered subcutaneously at 1 hour and 6 hours post-infection. Eighteen hours after the last treatment, mice were euthanized humanely; the infected thighs were removed, homogenized, serially diluted, and plated on agar. The bacterial burden was then quantitated by colony count. Compound 5, polymyxin B, colistin, and imipenem were evaluated for their ability to decrease the bacterial burden in the infected thighs compared with water-treated control mice.
All the test compounds were dissolved in sterile water for administration by subcutaneous (sc) injection. A series of dilutions of test compounds were prepared in sterile water.
Mice were made neutropenic by ip administration with 150 mg/kg cyclophosphamide on day-4, followed by a second ip dose of 100 mg/kg cyclophosphamide on day-1. A diluted exponential-phase growing culture of A. baumannii #1570 corresponding to 1×10^7 or 5×10^4 CFU respectively, in 0.2 mL of sterile saline, was injected into the left thigh of conscious mice on day 0. The actual concentration of bacteria in the inoculum was confirmed by determination of viable counts by dilution plating on tryptic soy agar plates. The number of CFU of bacteria was determined after an incubation of 16 hours at 37° C.
Groups of five mice were used for each dose of the test compounds and the vehicle. Each group received sc injections of test compounds or vehicle at 1 hour post-infection, and then at 6 hours post-infection for a total of 2 doses. In each study, there were three to five dose groups per test compound. Eighteen hours after the last injection, the mice were euthanized by asphyxiation with CO2. The left thighs were removed aseptically, homogenized in 4 mL of distilled water and dilution plated on tryptic soy agar plates to quantify bacterial CFU. The number of CFU of bacteria in thighs was determined after an incubation of 16 hours at 37° C. (the CFU per milliliter of homogenate).
The results were expressed as the geometric mean log10 CFU/mL±the standard deviation. The limit of detection was 10 CFU per mL of thigh homogenate. Thighs were considered sterile when no CFU were detected on the agar. The efficacy of the test compounds was assessed by comparing the number of log10 CFU/mL measured in the treated mice with control animals treated with vehicle (water). The efficacy of Compound 5 was also compared with the positive comparator antibiotics polymyxin B, colistin and imipenem-cilastatin.
Dose response curves of test compounds were generated for each isolate. Regression lines were generated using Microsoft Excel to calculate the dose administered twice daily (BID) predicted to produce a 3 log10 reduction in bacterial count as compared to the water-treated control group [ED−3 log 10 (mg/kg, sc, BID)].

[1] = 2.0 mg/kg BID sc, 1 and 6 h post-infection, water control 7.75

Structure (SMILES) | MIC against P. aeruginosa #44 (P. aeruginosa #44) | MIC P. aeruginosa (P. aeruginosa) [micrograms/ml] | Log10 CFU/mL thigh homogenate ± SD (A. baumannii #1570; [1]) [Log10 CFU/mL] | Log10 CFU/mL thigh homogenate ± SD (A. baumannii #1570; 4.0 mg/kg BID sc) [Log10 CFU/mL] | Log10 CFU/mL thigh homogenate ± SD (A. baumannii #1570; 8.0 mg/kg BID sc) [Log10 CFU/mL] | Log10 CFU/mL thigh homogenate ± SD (A. baumannii #1570; 12.0 mg/kg BID sc) [Log10 CFU/mL] | ED−3log10 (dose for 3 log10 reduction in bacterial count vs water) (A. baumannii #1570) | MIC P. aeruginosa 44 (P. aeruginosa #44; Table 3B) [micrograms/mL] | activity against bacteria compared with polymyxin B (P. aeruginosa)
CCC(C)CCCCC(=O)NC(CCN)C(=O)NC(C(=O)NC(CCN)C(=O)NC1CCNC(=O)C(C(C)O)NC(=O)C(CCN)NC(=O)C(CCN)NC(=O)C(CC(C)C)NC(=O)C(Cc2ccccc2)NC(=O)C(CCN)NC1=O)C(C)O (stereo not shown) [Polymyxin B, polymyxin B, reference compound] ({Octanoyl(6-Me)}-[Dab]T[Dab][Dab][Dab]FL[Dab][Dab]T; lactam 4-C; configuration not given here) | 1-2 micrograms/ml | 2 | 6.04 ± 1.10 | 4.94 ± 1.03 | 4.07 ± 0.41 | 4.19 ± 0.59 | 4.8 mg/kg, BID | – | –
CC(C)C[C@@H]1NC(=O)[C@@H](Cc2ccccc2)NC(=O)[C@H](CCN)NC(=O)[C@@H](NC(=O)[C@H](CCN)NC(=O)[C@@H](NC(=O)[C@H](CCN)NC(=O)Nc2ccccc2Cl)[C@@H](C)O)CCNC(=O)[C@H]([C@@H](C)O)NC(=O)[C@H](CCN)NC(=O)[C@H](CCN)NC1=O [Compound 5, (S)-4-amino-N-((2S,3R)-1-((S)-4-amino-1-oxo-1-((3S,6S,9S,12S,15R,18S,21S)-6,9,18-tris(2-aminoethyl)-15-benzyl-3-((R)-1-hydroxyethyl)-12-isobutyl-2,5,8,11,14,17,20-heptaoxo-1,4,7,10,13,16,19-heptaazacyclotricosan-21-ylamino)butan-2-ylamino)-3-hydroxy-1-oxobutan-2-yl)-2-(3-(2-chlorophenyl)ureido)butanamide] ({NH(2-ClPh)-CO}-[Dab]T[Dab][Dab][Dab][dF]L[Dab][Dab]T; lactam 4-C) | 1-2 micrograms/ml | 2 | 6.93 ± 0.56 | 6.64 ± 0.55 | 5.06 ± 0.80 | 3.97 ± 0.34 | 6.4^b mg/kg, BID | 1 | as active or more active
